Laboratory results reported in patent US20250368616A1, “NITROGEN-CONTAINING HETEROCYCLIC DERIVATIVE INHIBITOR, AND PREPARATION METHOD THEREFOR AND USE THEREOF” (SHANGHAI HANSOH BIOMEDICAL CO., LTD., priority 2021, published 2025).

Tests used:
[1] = molecular target: EGFR L858R/T790M/C797S mutant kinase (Homo sapiens (Human), UniProt P00533, C797S/L858R/T790M); experiment: HTRF kinase assay, EGFR L858R/T790M/C797S mutant kinase; format: biochemical; conditions: 120 minutes at room temperature
Source text: (§1) Test Example 1. Determination of the Inhibitory Effect of the Compounds of the Present Invention on the Activity of EGFR del19/T790M/C797S and EGFR L858R/T790M/C797S Mutant Kinases
(§2) Experimental objective: The objective of this test example is to test the inhibitory activity of the compounds on the activity of EGFR del19/T790M/C797S and EGFR L858R/T790M/C797S mutant kinases.
(§3) Experimental method: This experiment used Cisbio's HTRF kinase assay method (Cisbio #62TK0PEB), wherein a catalytic reaction occurred between the substrate polypeptide TK and ATP in the presence of the tyrosine kinase with EGFR del19/T790M/C797S or EGFR L858R/T790M/C797S mutation, the substance was phosphorylated, and the activity of the kinase was characterized by measuring the content of the phosphorylated substrate generated during the reaction, and the half inhibitory concentration IC50 of the compound on the activity of EGFR del19/T790M/C797S or EGFR L858R/T790M/C797S mutant kinase was obtained.
(§4) Specific Experimental Operations were as Follows: • the kinase reaction was carried out in a white 384-well plate (Perkin Elmer #6008280), and 1-5 μL of compounds of different concentrations which were diluted with 1% DMSO-containing ddH2O were added; to the positive control wells were added 1-5 μL of 1% DMSO-containing ddH2O, followed by 1-5 μL of 0.5-5 nM 4×EGFR del19/T790M/C797S or EGFR L858R/T790M/C797S mutant kinase solution which was diluted with Dilution buffer (5× kinase buffer, MgCl2 6.65 Mm, MnCl2 1.33 mM, DTT 1.33 mM); to the negative control wells were added 1-5 μL of Dilution buffer; to all the wells were added 1-5 μL of 4 μM 4× substrate TK solution which was prepared with 10× Dilution buffer, and finally added 1-5 μL of 24 μM 4×ATP solution which was diluted with Dilution buffer to start the reaction; after reacting at room temperature for 120 minutes, 10 μL of detection solution (TK antibody 16 nM, XL665 0.5 μM) was added to each well, same was reacted at room temperature in the dark for 20 minutes, and then the […] was detected using a BioTek Synergy H1 microplate reader.
(§5) The percent inhibition data for compound-treated wells was calculated according to the positive control wells (DMSO control wells) and negative control wells (no kinase added) on the plate {% inhibition rate=100−[(test compound value−negative control value)]/(positive control value−negative control value)×100}. GraphPad prism was used to fit different concentrations and corresponding percent inhibition rate data to a 4-parameter nonlinear logistic equation to calculate IC50 values.

[2] = tested on: Ba/F3 EGFR Del19/C797S cells; experiment: Cell proliferation inhibition assay (Cell Titer-Glo), Ba/F3 EGFR Del19/C797S; format: cell-based; conditions: 72 hours, read-out: Ba/F3 EGFR Del19_C797S IC50
Summary of the method: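 Ba/F3 cells carrying EGFR Del19/T790M/C797S or Del19/C797S, grown in RPMI 1640 with 10% FBS, were plated overnight and then exposed to serially diluted compound for 72 h at 37° C, 5% CO2. Viability was read by CellTiter-Glo luminescence; IC50 came from a nonlinear fit of inhibition rate against concentration.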

[3] = tested on: Ba/F3 EGFR Del19/T790M/C797S cells; experiment: Cell proliferation inhibition assay (Cell Titer-Glo), Ba/F3 EGFR Del19/T790M/C797S; format: cell-based; conditions: 72 hours, read-out: Ba/F3 EGFR Del19_T790M_C797S IC50
Source text: Test Example 2: Cell Proliferation Inhibition Assay
Experimental objective: The objective of this test example is to test the inhibitory activity of compounds on the proliferation of different EGFR C797S drug-resistant mutant cell lines Ba/F3 EGFR Del19/T790M/C797S, Ba/F3 EGFR L858R/T790M/C797S, and Ba/F3 EGFR Del19/C797S.
• Ba/F3 EGFR Del19/T790M/C797S cells were purchased from KYinno Biotechnology Co., Ltd.; • Ba/F3 EGFR Del19/C797S cells were purchased from CoBioer Biosciences Co., Ltd.; • Ba/F3 EGFR L858R/T790M/C797S cells were purchased from CoBioer Biosciences Co., Ltd.; • Cell Titer-Glo was purchased from Promega, with a catalog number of G7573; • RPMI 1640 was purchased from Gibco, with a catalog number of 22400089; • FBS was purchased from Gibco, with a catalog number of 10091148; • cell culture plates were purchased from Corning, with a catalog number of 3610.
The inhibitory activity of the compound on the proliferation of different EGFR C797S drug-resistant mutant cell lines was detected using the Cell Titer-Glo method. The different cell lines were cultured in RPMI 1640 complete culture medium containing 10% FBS under conditions of 37° C. and 5% CO2, the cells were collected by centrifugation when growing to a certain density, and adjusted to appropriate cell density after counting, the cells were spread on a white 96-well plate at 90 μL/well, and cultured in a 37° C., 5% CO2 incubator overnight, prepared compound solutions of different concentrations were added at 10 μL/well, corresponding solvent controls were set, and all wells were cultured in a 37° C., 5% CO2 incubator for 72 hours, 50 μL of CellTiter-Glo solution was added to each well, shook and mixed evenly, and incubated in the dark for 10 minutes, and a BioTek Synergy H1 microplate reader was used for reading.
The luminescence signal value was used to calculate the inhibition rate. Graphpad Prism software was used to fit the concentration and inhibition rate to a nonlinear regression curve, so as to obtain the IC50 value, as shown in Tables 3 and 4 below for details.

[4] = molecular target: EGFR del19/T790M/C797S mutant kinase (Homo sapiens, UniProt P00533, C797S/DEL746-750/T790M); experiment: HTRF kinase assay, EGFR del19/T790M/C797S mutant kinase; format: biochemical; conditions: 120 minutes at room temperature
Source text: as §1, §2, §3, §4, §5

Sequence of EGFR del19/T790M/C797S mutant kinase (P00533 with tags, fused parts or gaps C797S/DEL746-750/T790M limits assumed): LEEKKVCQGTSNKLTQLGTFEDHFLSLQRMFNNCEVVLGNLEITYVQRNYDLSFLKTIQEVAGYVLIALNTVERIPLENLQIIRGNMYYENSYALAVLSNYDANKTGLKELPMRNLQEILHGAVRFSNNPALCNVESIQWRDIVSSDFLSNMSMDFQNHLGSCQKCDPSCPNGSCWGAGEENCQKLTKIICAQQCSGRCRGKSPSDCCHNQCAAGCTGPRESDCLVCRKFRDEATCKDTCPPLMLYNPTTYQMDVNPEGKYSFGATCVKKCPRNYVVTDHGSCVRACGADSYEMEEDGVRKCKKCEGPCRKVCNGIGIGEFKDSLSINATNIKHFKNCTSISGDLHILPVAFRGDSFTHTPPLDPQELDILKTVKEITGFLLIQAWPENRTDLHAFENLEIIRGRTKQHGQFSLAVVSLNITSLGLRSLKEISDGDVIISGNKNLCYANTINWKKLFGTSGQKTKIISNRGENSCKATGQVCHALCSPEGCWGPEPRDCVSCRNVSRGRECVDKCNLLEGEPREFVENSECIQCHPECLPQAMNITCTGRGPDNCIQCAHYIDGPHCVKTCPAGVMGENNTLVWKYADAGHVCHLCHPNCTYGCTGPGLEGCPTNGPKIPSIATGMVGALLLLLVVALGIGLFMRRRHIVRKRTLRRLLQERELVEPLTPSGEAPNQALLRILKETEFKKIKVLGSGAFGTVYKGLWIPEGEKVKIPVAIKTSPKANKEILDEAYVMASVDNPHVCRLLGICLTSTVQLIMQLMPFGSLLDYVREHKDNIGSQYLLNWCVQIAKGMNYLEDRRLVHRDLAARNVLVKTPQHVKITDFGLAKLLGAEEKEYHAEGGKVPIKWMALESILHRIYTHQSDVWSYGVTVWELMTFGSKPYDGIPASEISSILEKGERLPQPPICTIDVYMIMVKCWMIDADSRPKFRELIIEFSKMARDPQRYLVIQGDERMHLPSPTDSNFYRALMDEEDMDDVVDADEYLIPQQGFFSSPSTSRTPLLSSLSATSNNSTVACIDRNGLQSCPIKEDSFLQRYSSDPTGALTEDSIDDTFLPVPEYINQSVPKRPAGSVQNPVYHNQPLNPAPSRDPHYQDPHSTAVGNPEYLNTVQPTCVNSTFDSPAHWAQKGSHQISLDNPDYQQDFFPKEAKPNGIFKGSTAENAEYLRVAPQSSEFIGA
Sequence of EGFR L858R/T790M/C797S mutant kinase (P00533 25-1210 T790M/C797S/L858R): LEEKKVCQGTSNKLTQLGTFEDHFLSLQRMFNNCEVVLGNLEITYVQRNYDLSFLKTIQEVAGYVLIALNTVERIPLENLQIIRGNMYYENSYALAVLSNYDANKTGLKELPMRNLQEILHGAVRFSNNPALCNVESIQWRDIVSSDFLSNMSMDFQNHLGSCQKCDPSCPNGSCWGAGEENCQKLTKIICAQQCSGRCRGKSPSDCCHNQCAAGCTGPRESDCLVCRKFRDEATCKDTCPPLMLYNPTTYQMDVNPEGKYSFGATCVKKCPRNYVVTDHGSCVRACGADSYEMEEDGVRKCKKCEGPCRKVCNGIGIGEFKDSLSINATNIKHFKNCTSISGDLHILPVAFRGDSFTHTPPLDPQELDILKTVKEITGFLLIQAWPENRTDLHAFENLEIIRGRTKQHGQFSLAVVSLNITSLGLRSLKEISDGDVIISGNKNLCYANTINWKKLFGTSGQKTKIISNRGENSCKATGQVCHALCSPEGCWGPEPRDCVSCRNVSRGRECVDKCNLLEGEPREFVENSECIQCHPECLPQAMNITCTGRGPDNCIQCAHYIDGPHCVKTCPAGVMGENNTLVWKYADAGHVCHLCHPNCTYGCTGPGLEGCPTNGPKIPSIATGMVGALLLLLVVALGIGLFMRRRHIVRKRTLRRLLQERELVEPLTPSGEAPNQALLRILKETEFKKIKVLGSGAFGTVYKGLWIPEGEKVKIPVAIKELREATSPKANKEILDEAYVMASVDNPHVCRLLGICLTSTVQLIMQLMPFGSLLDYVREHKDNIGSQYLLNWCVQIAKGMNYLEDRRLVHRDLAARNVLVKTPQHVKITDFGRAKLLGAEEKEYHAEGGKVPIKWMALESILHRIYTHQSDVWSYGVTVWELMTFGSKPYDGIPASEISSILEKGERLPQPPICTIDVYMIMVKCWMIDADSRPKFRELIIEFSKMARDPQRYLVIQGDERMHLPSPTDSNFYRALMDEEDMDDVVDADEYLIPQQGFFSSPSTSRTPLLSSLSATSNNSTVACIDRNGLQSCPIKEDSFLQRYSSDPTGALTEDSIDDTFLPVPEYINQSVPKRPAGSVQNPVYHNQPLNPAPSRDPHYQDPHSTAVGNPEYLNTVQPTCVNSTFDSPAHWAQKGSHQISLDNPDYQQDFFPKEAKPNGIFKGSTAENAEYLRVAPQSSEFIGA

## CC(C)c1ccc(N2CC(CS(C)(=O)=O)C2)c2cnc(Nc3ccnc(-c4cnn(S(=O)(=O)C5CC5)c4)n3)cc12 [Example 1, N-(2-(1-(cyclopropylsulfonyl)-1H-pyrazol-4-yl)pyrimidin-4-yl)-5-isopropyl-8-(3-((methanesulfonyl)methyl)azetidin-1-yl)isoquinolin-3-amine]
[1]
  IC50: 0.51 nM
[2]
  IC50: 14 nM
[3]
  IC50: 10 nM
[4]
  IC50: 0.58 nM

## CC(C)c1ccc(N2C[C@H](CS(C)(=O)=O)[C@H]2C)c2cnc(Nc3ccnc(-c4cnn(C5CCN(C)CC5)c4)n3)cc12 [Example 14, 5-isopropyl-8-((2R,3S)-2-methyl-3-((methanesulfonyl)methyl)azetidin-1-yl)-N-(2-(1-(1-methylpiperidin-4-yl)-1H-pyrazol-4-yl)pyrimidin-4-yl)isoquinolin-3-amine]
[1]
  IC50: 0.73 nM
[2]
  IC50: 54 nM
[4]
  IC50: 3.6 nM

## CC(C)c1ccc(N2C[C@H](CS(C)(=O)=O)[C@H]2C)c2cnc(Nc3ccnc(-c4cnn(C5CC5)c4)n3)cc12 [Example 15, N-(2-(1-cyclopropyl-1H-pyrazol-4-yl)pyrimidin-4-yl)-5-isopropyl-8-((2R,3S)-2-methyl-3-((methanesulfonyl)methyl)azetidin-1-yl)isoquinolin-3-amine]
[1]
  IC50: 1.9 nM
[2]
  IC50: 41 nM
[4]
  IC50: 2.5 nM

## CC(C)c1ccc(N2C[C@H](CS(C)(=O)=O)[C@H]2C)c2cnc(Nc3ccnc(-c4cn[nH]c4)n3)cc12 [Example 17, N-(2-(1H-pyrazol-4-yl)pyrimidin-4-yl)-5-isopropyl-8-((2R,3S)-2-methyl-3-((methanesulfonyl)methyl)azetidin-1-yl)isoquinolin-3-amine]
[1]
  IC50: 0.71 nM
[4]
  IC50: 3 nM

## CC(C)c1ccc(N2C[C@H](CS(C)(=O)=O)[C@H]2C)c2cnc(Nc3ccnc(-c4cnn(CC5(C#N)CC5)c4)n3)cc12 [Example 19, 1-((4-(4-((5-isopropyl-8-((2R,3S)-2-methyl-3-((methanesulfonyl)methyl)azetidin-1-yl)isoquinolin-3-yl)amino)pyrimidin-2-yl)-1H-pyrazol-1-yl)methyl)cyclopropane-1-carbonitrile]
[1]
  IC50: 1 nM
[4]
  IC50: 2.5 nM

## CC(C)c1ccc(N2C[C@H](CS(C)(=O)=O)[C@H]2C)c2cnc(Nc3ccnc(-c4cnn(C5COC5)c4)n3)cc12 [Example 20, 5-isopropyl-8-((2R,3S)-2-methyl-3-((methanesulfonyl)methyl)azetidin-1-yl)-N-(2-(1-(oxetan-3-yl)-1H-pyrazol-4-yl)pyrimidin-4-yl)isoquinolin-3-amine]
[1]
  IC50: 0.92 nM
[4]
  IC50: 6.2 nM

## CC(C)c1ccc(N2C[C@H](CS(C)(=O)=O)[C@H]2C)c2cnc(Nc3ccnc(-c4cnn(CC5CCO5)c4)n3)cc12 (stereo partly drawn) [Example 21, 5-isopropyl-8-((2R,3S)-2-methyl-3-((methanesulfonyl)methyl)azetidin-1-yl)-N-(2-(1-(oxetan-2-ylmethyl)-1H-pyrazol-4-yl)pyrimidin-4-yl)isoquinolin-3-amine]
[1]
  IC50: 0.6 nM
[2]
  IC50: 96 nM
[4]
  IC50: 3.9 nM

## CC(C)c1ccc(N2C[C@H](CS(C)(=O)=O)[C@H]2C)c2cnc(Nc3ccnc(-c4cnn(C)c4)n3)cc12 [Example 24, 5-isopropyl-N-(2-(1-methyl-1H-pyrazol-4-yl)pyrimidin-4-yl)-8-((2R,3S)-2-methyl-3-((methanesulfonyl)methyl)azetidin-1-yl)isoquinolin-3-amine]
[1]
  IC50: 0.3 nM
[2]
  IC50: 29 nM
[3]
  IC50: 10 nM
[4]
  IC50: 3.6 nM

## CC(C)c1ccc(N2C[C@H](CS(C)(=O)=O)[C@H]2C)c2cnc(Nc3ccnc(-c4cnn(CCF)c4)n3)cc12 [Example 27, N-(2-(1-(2-fluoroethyl)-1H-pyrazol-4-yl)pyrimidin-4-yl)-5-isopropyl-8-((2R,3S)-2-methyl-3-((methanesulfonyl)methyl)azetidin-1-yl)isoquinolin-3-amine]
[1]
  IC50: 1.9 nM
[2]
  IC50: 40 nM
[4]
  IC50: 8.9 nM

## COCC1(Cn2cc(-c3nccc(Nc4cc5c(C(C)C)ccc(N6C[C@H](CS(C)(=O)=O)[C@H]6C)c5cn4)n3)cn2)CC1 [Example 66, 5-isopropyl-N-(2-(1-((1-(methoxymethyl)cyclopropyl)methyl)-1H-pyrazol-4-yl)pyrimidin-4-yl)-8-((2R,3S)-2-methyl-3-((methanesulfonyl)methyl)azetidin-1-yl)isoquinolin-3-amine]
[1]
  IC50: 0.17 nM
[2]
  IC50: 78 nM
